# Data as given in publication PMC10544018 (Journal of Medicinal Chemistry, 2023).
# Assays:
# [1] = target: T1, VCB protein (Homo sapiens, UniProt P40337); experiment: Competitive fluorescence polarization (FP) binding assay, displacement of FAM-labeled HIF-1α peptide; settings: for Kd: dissociation constant, determined by FP, mean ± S.E.M., back-calculated from IC50; for IC50: mean IC50 values obtained from the FP assay, read-out: IC50 ± S.E.M, FP assay
# T1 construct: A plasmid containing pVHL54–213 with an N-terminal His6 tag; His6 (N, cleaved yes); made in house; host or cells: Escherichia coli BL21 (DE3)
# Procedure: Binding of a ligand to the HIF binding site of VHL displaces a fluorescein-labeled, 19-mer HIF-1α oligopeptide, leading to a change in polarization of emitted light upon excitation of the competing fluorescent probe.
# All components were dissolved from stock solutions using 100 mM Bis–Tris, 100 mM NaCl, 1 mM DTT, pH 7.0, to yield a final assay volume of 15 μL. DMSO was added as appropriate to ensure a final concentration of 2% (v/v). Control wells containing VCB and JC9 with no compound (zero displacement), or JC9, in the absence of protein (maximum displacement) were also included to allow for normalization. Percentage displacement values were obtained by normalization of controls and were plotted against log[compound]. The IC50 values were determined for each titration using non-linear regression analysis with Prism GraphPad (Table S1). Dissociation constants Kd for the compound–VCB interaction were back-calculated from the measured IC50 values by using a displacement binding model as described.[16],[64]
# [2] = Log D7.4 measurement by chromatographic method; assay type: physicochemical; settings: experimental distribution coefficient at pH 7.4; read-out: e log D7.4
# Procedure: (§1) Both were experimentally obtained employing HPLC-based protocols.[39],[40] […] PPB values were determined in view of how they could impact future pharmacokinetic studies of compounds as VHL inhibitors, or once conjugated into bifunctional PROTACs, for which PPB can be a limiting factor.
# The determination of the log D7.4 values was performed by a chromatographic method as described previously.[41],[62] […] Subsequently, the mean retention times (n = 2) of the analytes were taken to calculate their log D7.4 values.
# [3] = target: human serum albumin (Homo sapiens, UniProt P02768); experiment: PPB studies on HSA HPLC column; assay type: in vitro ADME; settings: CHIRALPAK HSA HPLC column (human serum albumin); experimentally determined percentage of the compound bound to human serum albumin
# Procedure: as §1
# PPB was estimated by correlating the logarithmic retention times of the analytes on a […] HSA 50 × 3 mm, 5 μm column with the literature-known % PPB values (converted into log K values) of the following drugs: warfarin, ketoprofen, budesonide, nizatidine, indomethacin, acetylsalicylic acid, carbamazepine, piroxicam, nicardipine, and cimetidine.[63] Samples were dissolved in MeCN/DMSO 9:1 to achieve a final concentration of 0.5 mg/mL. The mobile phase A was 50 mM ammonium acetate adjusted to pH 7.4 with 10% NaOH, while mobile phase B was iPrOH. […] After injecting 3 μL of the sample, a linear gradient from 100% A to 30% iPrOH in 5.4 min was applied. From 5.4 to 18 min, 30% iPrOH was kept, followed by switching back to 100% A in 1.0 min and a re-equilibration time of 6 min.
Structure (SMILES),Kd [1] [nM],IC50 [1] [nM],chromatographic logD [2],fraction unbound at 0.5 mg/mL [3]
"COc1cc(-c2scnc2C)c(OC)cc1CNC(=O)[C@@H]1C[C@@H](O)CN1C(=O)[C@@H](NC(=O)C1(C#N)CC1)C(C)(C)C [Compound 15, (2S,4R)-1-((S)-2-(1-Cyanocyclopropane-1-carboxamido)-3,3-dimethylbutanoyl)-N-(2,5-dimethoxy-4-(4-methylthiazol-5-yl)benzyl)-4-hydroxypyrrolidine-2-carboxamide]",1270 ± 150,6530 ± 428,1.9,0.14
"Cc1ncsc1-c1cc(Cl)c(CNC(=O)[C@@H]2C[C@@H](O)CN2C(=O)[C@@H](NC(=O)C2(C#N)CC2)C(C)(C)C)cc1Cl [Compound 17, (2S,4R)-1-((S)-2-(1-Cyanocyclopropane-1-carboxamido)-3,3-dimethylbutanoyl)-N-(2,5-dichloro-4-(4-methylthiazol-5-yl)benzyl)-4-hydroxypyrrolidine-2-carboxamide]",883 ± 68,4560 ± 208,2.5,0.07
"Cc1ncsc1-c1ccc(CNC(=O)[C@@H]2C[C@@H](O)CN2C(=O)[C@@H](NC(=O)C2(C#N)CC2)C(C)(C)C)c(F)c1F [Compound 19, (2S,4R)-1-((S)-2-(1-Cyanocyclopropane-1-carboxamido)-3,3-dimethylbutanoyl)-N-(2,3-difluoro-4-(4-methylthiazol-5-yl)benzyl)-4-hydroxypyrrolidine-2-carboxamide]",1450 ± 180,7450 ± 624,2.2,0.11
"Cc1ncsc1-c1ccc2c(c1)CC[C@@H]2NC(=O)[C@@H]1C[C@@H](O)CN1C(=O)[C@@H](NC(=O)C1(C#N)CC1)C(C)(C)C [Compound 34, (2S,4R)-1-((S)-2-(1-Cyanocyclopropane-1-carboxamido)-3,3-dimethylbutanoyl)-4-hydroxy-N-((S)-5-(4-methylthiazol-5-yl)-2,3-dihydro-1H-inden-1-yl)pyrrolidine-2-carboxamide]",3920 ± 420,15900 ± 934,2.2,0.1
"Cc1ncsc1-c1cc2c(cc1F)[C@@H](NC(=O)[C@@H]1C[C@@H](O)CN1C(=O)[C@@H](NC(=O)C1(C#N)CC1)C(C)(C)C)CC2 [Compound 35, (2S,4R)-1-((S)-2-(1-Cyanocyclopropane-1-carboxamido)-3,3-dimethylbutanoyl)-N-((S)-6-fluoro-5-(4-methylthiazol-5-yl)-2,3-dihydro-1H-inden-1-yl)-4-hydroxypyrrolidine-2-carboxamide]",4040 ± 530,16600 ± 2130,2.3,0.1
"Cc1ncsc1-c1cc2c(cc1F)[C@@H](NC(=O)[C@@H]1C[C@@H](O)CN1C(=O)[C@@H](NC(=O)C1(F)CC1)C(C)(C)C)CCC2 [Compound 37, (2S,4R)-N-((S)-7-Fluoro-6-(4-methylthiazol-5-yl)-1,2,3,4-tetrahydronaphthalen-1-yl)-1-((S)-2-(1-fluorocyclopropane-1-carboxamido)-3,3-dimethylbutanoyl)-4-hydroxypyrrolidine-2-carboxamide]",1040 ± 240,4400 ± 1060,2.6,0.08

# Stronger by Kd [1], values ahead:
Kd [1] [nM],IC50 [1] [nM],chromatographic logD [2],fraction unbound at 0.5 mg/mL [3],Structure (SMILES)
281 ± 46,1440 ± 198,2,0.12,"Cc1ncsc1-c1cc(F)c(CNC(=O)[C@@H]2C[C@@H](O)CN2C(=O)[C@@H](NC(=O)C2(C#N)CC2)C(C)(C)C)cc1F [Compound 16, (2S,4R)-1-((S)-2-(1-Cyanocyclopropane-1-carboxamido)-3,3-dimethylbutanoyl)-N-(2,5-difluoro-4-(4-methylthiazol-5-yl)benzyl)-4-hydroxypyrrolidine-2-carboxamide]"
322 ± 38,1650 ± 100,2.3,0.09,"Cc1ncsc1-c1ccc(CNC(=O)[C@@H]2C[C@@H](O)CN2C(=O)[C@@H](NC(=O)C2(C#N)CC2)C(C)(C)C)c(C)c1C [Compound 18, (2S,4R)-1-((S)-2-(1-Cyanocyclopropane-1-carboxamido)-3,3-dimethylbutanoyl)-N-(2,3-dimethyl-4-(4-methylthiazol-5-yl)benzyl)-4-hydroxypyrrolidine-2-carboxamide]"
141 ± 8,727 ± 7,1.9,0.11,"Cc1ncsc1-c1ccc(CNC(=O)[C@@H]2C[C@@H](O)CN2C(=O)[C@@H](NC(=O)C2(C#N)CC2)C(C)(C)C)c(O)c1F [Compound 20, (2S,4R)-1-((S)-2-(1-Cyanocyclopropane-1-carboxamido)-3,3-dimethylbutanoyl)-N-(3-fluoro-2-hydroxy-4-(4-methylthiazol-5-yl)benzyl)-4-hydroxypyrrolidine-2-carboxamide]"
397 ± 70,2020 ± 271,2.3,0.07,"Cc1ncsc1-c1ccc(CNC(=O)[C@@H]2C[C@@H](O)CN2C(=O)[C@@H](NC(=O)C2(C#N)CC2)C(C)(C)C)c2ccccc12 [Compound 22, (2S,4R)-1-((S)-2-(1-Cyanocyclopropane-1-carboxamido)-3,3-dimethylbutanoyl)-4-hydroxy-N-((4-(4-methylthiazol-5-yl)naphthalen-1-yl)methyl)pyrrolidine-2-carboxamide]"
330 ± 93,1670 ± 375,1.7,0.12,"Cc1ncsc1-c1ccc(CNC(=O)[C@@H]2C[C@@H](O)CN2C(=O)[C@@H](NC(=O)C2(C#N)CC2)C(C)(C)C)c2ncccc12 [Compound 23, (2S,4R)-1-((S)-2-(1-Cyanocyclopropane-1-carboxamido)-3,3-dimethylbutanoyl)-4-hydroxy-N-((5-(4-methylthiazol-5-yl)quinolin-8-yl)methyl)pyrrolidine-2-carboxamide]"
86 ± 20,329 ± 51,2.3,0.12,"Cc1cc(-c2scnc2C)ccc1[C@H](C)NC(=O)[C@@H]1C[C@@H](O)CN1C(=O)[C@@H](NC(=O)C1(C#N)CC1)C(C)(C)C [Compound 24, (2S,4R)-1-((S)-2-(1-Cyanocyclopropane-1-carboxamido)-3,3-dimethylbutanoyl)-4-hydroxy-N-((S)-1-(2-methyl-4-(4-methylthiazol-5-yl)phenyl)ethyl)pyrrolidine-2-carboxamide]"
186 ± 40,718 ± 95,2.2,0.12,"Cc1ncsc1-c1ccc([C@H](C)NC(=O)[C@@H]2C[C@@H](O)CN2C(=O)[C@@H](NC(=O)C2(C#N)CC2)C(C)(C)C)cc1F [Compound 25, (2S,4R)-1-((S)-2-(1-Cyanocyclopropane-1-carboxamido)-3,3-dimethylbutanoyl)-N-((S)-1-(3-fluoro-4-(4-methylthiazol-5-yl)phenyl)ethyl)-4-hydroxypyrrolidine-2-carboxamide]"
80 ± 23,310 ± 65,2.3,0.1,"Cc1cc(-c2scnc2C)c(F)cc1CNC(=O)[C@@H]1C[C@@H](O)CN1C(=O)[C@@H](NC(=O)C1(F)CC1)C(C)(C)C [Compound 28, (2S,4R)-N-(5-Fluoro-2-methyl-4-(4-methylthiazol-5-yl)benzyl)-1-((S)-2-(1-fluorocyclopropane-1-carboxamido)-3,3-dimethylbutanoyl)-4-hydroxypyrrolidine-2-carboxamide]"
